From patent publication US8685726B2, “Small molecules supporting pluripotent cell growth and methods thereof” (Viacyte, Inc., priority 2009, dated 2014) come the findings set out here.

Counter-ions that a name gives are not always drawn.

One assay deals with hES cells. Kind of assay: Alkaline phosphatase staining screen of LOPAC1280 library (primary screen and secondary dose titration). The format is cell-based, human. Conditions: Homo sapiens; secondary screen, dilution series, 48 hours with compound, AP staining, StemPro hESC SFM, 96-well; read-out: [Concentration] minimal effective concentration negatively impacting hES cell cultures. As to the method:
FIG. 1. Representation of antagonists/modulators of neurotransmitter/hormone receptors identified by compound screening in hES cells. […] Receptor antagonists identified in the primary screen are shown (left column). The screen was performed using compounds at 10 μM. The secondary dose titration assay is shown (50-0.1 μM columns), and receptor class targeted by each compound and action is indicated.
Applying this approach in 96- and 384-well plates, quantitative and statistically significant cell-counting data was generated confirming the effect of AG825, an inhibitor of ERBB2 signaling, on self-renewal. About 3×10^4 hES cells per well were plated on MATRIGEL™ in StemPro® hESC SFM in 96-well plates and cultured for about 24 hours. The media was then changed, with new media containing 10 μM of a compound from the LOPAC1280 library (partial list in Table 1), and the cultures incubated for an additional 48 hours. The cultures were then fixed and stained for endogenous alkaline phosphatase, a marker of undifferentiated hES cells, activity.
The LOPAC1280 collection (Sigma Cat# LO1280), a library of small organic molecules with well-characterized pharmacological activities, was screened using the above described alkaline phosphatase detection assay in 96-well plates (16 plates total). Each 96-well assay was performed with 80 compounds (1 compound per well) and 16 wells as DMSO carrier negative controls. Greater than about 50 compounds were identified in the primary screen as impacting hES cell growth & expansion, which was then further determined to be a group of 38 molecules (Table 1) after secondary screening, and when known generally cytotoxic molecules were excluded (for example, 5-Azacytidine). Pathways that are likely to be impacted by these molecules, and therefore possibly important in hES cells, included those involving signalling by NFκB, eNOS, RAR(a), calcium channels, tachykinin signaling, guanylyl cyclase, Src and Jak2.
Secondary screening was performed using the same assay, but with a dilution series of 0.1-50 μM of a compound as compared to the 10 μM initially used. The minimal effective concentration for each compound is indicated (Table 1). […] While a role for GABA signaling in hES cell self-renewal has been highlighted previously (Ludwig et al., 2006), it has not been examined under other defined media conditions. Potential roles for other neurotransmitters in undifferentiated pluripotent stem cells have not been characterized.
On to `Oc1cc(-c2ccccc2)nc2nc(Cl)ccc12` [7-Chloro-4-hydroxy-2-phenyl-1,8-naphthyridine], for which the minimal effective concentration was found to be 5 µM. Still for that read-out and setting: the figure for `O=C(/C=C/c1ccc(O)c(O)c1)OCCc1ccccc1` [Caffeic acid phenethyl ester] is less than 0.1 µM; for `CNc1ccc2oc(C[C@H]3O[C@@]4(CC[C@H]3C)O[C@H]([C@H](C)C(=O)c3ccc[nH]3)[C@H](C)C[C@H]4C)nc2c1C(=O)O` [Calcimycin] it is 1 µM. Still for that read-out and setting: the value for `Clc1ccc(C(c2ccc(Cl)cc2)n2cc[n+](CC(OCc3ccc(Cl)cc3Cl)c3ccc(Cl)cc3Cl)c2)cc1` (stereo not shown) [Calmidazolium chloride] was 5 µM; that for `Oc1cc2c(cc1O)CN(C(=S)NCCc1ccc(Cl)cc1)CCC2` [Capsazepine] was 5 µM. For the compound `Cc1cc(N)c2ccccc2[n+]1CCCCCCCCCC[n+]1c(C)cc(N)c2ccccc21` [Dequalinium chloride hydrate], the minimal effective concentration was 5 µM. Same read-out and setting: the value for `c1ccc2c(c1)[I+]c1ccccc1-2` [Diphenyleneiodonium chloride] was 0.1 µM. On the same count and under the same terms, the value for `O=c1[nH]c2ccccc2n1CCCN1CCC(n2c(=O)[nH]c3cc(Cl)ccc32)CC1` [Domperidone] was 25 µM.

`COC(=O)C1=C(C)NC(C)=C(C(=O)OC(C)(C)CN(C)CCC(c2ccccc2)c2ccccc2)C1c1cccc([N+](=O)[O-])c1` (stereo not shown) [Lercanidipine hydrochloride hemihydrate]: the minimal effective concentration is 10 µM.

Take `CC[N+](CC)(CC)CCOc1ccc(/C=C/c2ccccc2)cc1` [MG 624]: the minimal effective concentration worked out at 0.1 µM. On the same count and under the same terms, the figure for `COCC(=O)O[C@]1(CCN(C)CCCc2nc3ccccc3[nH]2)CCc2cc(F)ccc2[C@@H]1C(C)C` [Mibefradil dihydrochloride] is 25 µM; for `CCCCCCCC/C=C\CCCCCCCC(=O)NCCc1ccc(O)c(O)c1` [N-Oleoyldopamine] it is 5 µM; for `CC(Cc1ccc(O)c(O)c1)C(C)Cc1ccc(O)c(O)c1` (stereo not shown) [Nordihydroguaiaretic acid] it is 5 µM. Same read-out and setting: the figure for `C[C@@H]1O[C@@H](O[C@H]2C[C@@H](O)[C@]3(CO)[C@H]4[C@H](O)C[C@]5(C)[C@@H](C6=CC(=O)OC6)CC[C@]5(O)[C@@H]4CC[C@]3(O)C2)[C@H](O)[C@H](O)[C@H]1O` [Ouabain] is less than 0.1 µM; for `N=C(N)c1ccc(OCCCCCOc2ccc(C(=N)N)cc2)cc1` [Pentamidine isethionate] it is 1 µM. Consider `COc1cc([C@@H]2c3cc4c(cc3[C@H](O)[C@H]3COC(=O)[C@H]23)OCO4)cc(OC)c1OC` [Podophyllotoxin], for which the minimal effective concentration is less than 0.1 µM. Take `C=CC1=C(C)c2cc3[nH]c(cc4nc(cc5[nH]c(cc1n2)c(C)c5CCC(=O)O)C(CCC(=O)O)=C4C)c(C)c3C=C` [Protoporphyrin IX disodium]: the minimal effective concentration was 10 µM. Still for that read-out and setting: the value for `CCN(CC)CCCC(C)Nc1c2ccc(Cl)cc2nc2ccc(OC)cc12` (stereo not shown) [Quinacrine dihydrochloride] was 10 µM.

Take `Cc1nc(-c2ccc(-c3ccc(C(=O)N4CCc5cc6c(cc54)C4(CCN(C)CC4)CO6)cc3)c(C)c2)no1` [SB 224289 hydrochloride]: the minimal effective concentration was 25 µM. On the same count and under the same terms, the figure for `COc1ccc(CCCOC(Cn2ccnc2)c2ccc(OC)cc2)cc1` (stereo not shown) [SKF 96365] is 25 µM; for `CN(C)S(=O)(=O)c1ccc2c(c1)/C(=C/c1cc3c([nH]1)CCCC3)C(=O)N2` [SU 6656] it is 25 µM. The same measure, in the same setting: the value for `CC(C)(C)c1ccc(C(O)CCCN2CCC(C(O)(c3ccccc3)c3ccccc3)CC2)cc1` (stereo not shown) [Terfenadine] was 25 µM. Turning to `C/C=C(/C)C(=O)O[C@H]1C(C)=C2[C@H]([C@@H]1OC(=O)CCCCCCC)[C@@](C)(OC(C)=O)C[C@H](OC(=O)CCC)[C@@]1(O)[C@H]2OC(=O)[C@@]1(C)O` [Thapsigargin], the minimal effective concentration was less than 0.1 µM. On the same count and under the same terms, the figure for `CC1(C)CCC2=C(O1)c1ccccc1C(=O)C2=O` [beta-Lapachone] is 5 µM.

The assay is the same for the next values; noted with them: secondary screen, dilution series, 48 hours with compound, AP staining, StemPro hESC SFM, 96-well; read-out: [Concentration] minimal effective concentration negatively impacting hES cell cultures.
Take `COc1cc2c(cc1O)CC[C@@H]1[C@@H]2CC[C@]2(C)[C@@H](O)CC[C@@H]12` [2-methoxyestradiol]: the minimal effective concentration is given as 10 µM.

Turning to `CC[n+]1c(/C=C/C=C2/N(C)c3ccccc3C2(C)C)sc2ccccc21.[I-]` [AC-93253 iodide], the minimal effective concentration is reported as 5 µM. Same read-out and setting: the figure for `N.S=C(S)N1CCCC1` [Ammonium pyrrolidinedithiocarbamate] is 10 µM.

As to `C[C@H]1CCC/C=C/[C@@H]2C[C@H](O)C[C@H]2[C@H](O)/C=C/C(=O)O1` [Brefeldin A], the minimal effective concentration is recorded as less than 0.1 µM. Still for that read-out and setting: the value for `C[C@@H]1O[C@@H](O[C@H]2C[C@@H](O)[C@]3(CO)[C@H]4[C@H](O)C[C@]5(C)[C@@H]([C@@H]6COC(=O)C6)CC[C@]5(O)[C@@H]4CC[C@]3(O)C2)[C@H](O)[C@H](O)[C@H]1O` [Dihydroouabain] was 1 µM.

Regarding `CNC(=O)[C@H]1O[C@@H](n2cnc3c(NCc4cccc(I)c4)ncnc32)[C@H](O)[C@@H]1O` [IB-MECA], the minimal effective concentration came out at 50 µM.

Regarding `Ic1ccccc1CNC1C2CCN(CC2)C1C(c1ccccc1)c1ccccc1.O=C(O)C(=O)O` [L-703,606 oxalate], the minimal effective concentration worked out at 25 µM. On the same count and under the same terms, the value for `CC(C)[C@H]1c2ccc(F)cc2CC[C@@]1(CCN(C)CCCc1nc2ccccc2[nH]1)OC(=O)C1CC1` [NNC 55-0396] was 25 µM; that for `Nc1ccc(CCN2CCN(c3cccc(C(F)(F)F)c3)CC2)cc1` [PAPP] was 25 µM. For `CC1=C(/C=C/C(C)=C/C=C/C(C)=C/C(=O)Nc2ccc(O)cc2)C(C)(C)CCC1` [Retinoic acid p-hydroxyanilide], the minimal effective concentration was 1 µM. Still for that read-out and setting: the figure for `N#C/C(=C\c1ccc(O)c(O)c1)C(=O)NCc1ccccc1` [Tyrphostin AG 490] is 25 µM; for Ivermectin it is 5 µM. Still for that read-out and setting: the value for Vinblastine sulfate salt was less than 0.1 µM.
